Experimental data reported in patent publication US20100099774A1 (priority 2007, published 2010).

Tests used:
Assay type in all cases: cell-based
Phytophthora infestans = conditions: 63 ppm, pea juice-based aqueous nutrient medium, 405 nm, 7 days after inoculation, Abbot's formula
Colleotrichum truncatum = conditions: 63 ppm, 2% aqueous biomalt solution, 405 nm, 7 days after inoculation, Abbot's formula
Pyrenophora teres = conditions: 63 ppm
Septoria tritici = conditions: 63 ppm
Corynespora cassiicola = conditions: 63 ppm
Rhynchosporium secalis = conditions: 63 ppm
Pyricularia oryzae = conditions: 63 ppm, 2% aqueous biomalt solution, 405 nm, 7 days after inoculation, Abbot's formula
Colleotrichum lagenarium = conditions: 63 ppm, 2% aqueous biomalt solution, 405 nm, 7 days after inoculation, Abbot's formula
Leptosphaeria nodorum = conditions: 63 ppm
Septoria glycines = conditions: 63 ppm
Monographella nivalis = conditions: 63 ppm
[1] = system: Pseudocercosporella herpotrichoides W-Type; conditions: 63 ppm
[2] = system: Pseudocercosporella herpotrichoides R-Type; conditions: 63 ppm

SMILES: CCN/C(=N\Nc1c(Cl)cc(C(F)(F)F)cc1Cl)C1(C)CC1(Cl)Cl (stereo not drawn) [compound I-2, N-Ethyl-2,2-dichloro-1-methylcyclopropane-carboxamide-2-(2,6-dichloro-α,α,α-trifluoro-p-tolyl)hydrazone]
- Efficacy (Phytophthora infestans): 100%
- Efficacy (Colleotrichum truncatum): 100%
- Efficacy (Pyrenophora teres): 96%
- Efficacy (Septoria tritici): 100%
- Efficacy (Corynespora cassiicola): 100%
- Efficacy (Rhynchosporium secalis): 100%
- Efficacy (Pyricularia oryzae): 91%
- Efficacy (Colleotrichum lagenarium): 89%
- Efficacy (Leptosphaeria nodorum): 100%
- Efficacy (Septoria glycines): 100%
- Efficacy (Monographella nivalis): 100%
- Efficacy [1]: 100%
- Efficacy [2]: 100%
